Here are results for seven compounds from ChEMBL document CHEMBL6096696, “Structure-Activity Relationship Studies of an Autophagy Inhibitor That Targets the ATG14L-Beclin1 Protein-Protein Interaction Reveal Modifications That Improve Potency and Solubility and Maintain Selectivity” (J Med Chem, 2025).

The test system of data set [1] is A549. The data set can be described thus: Inhibition of autophagy in human A549 cells assessed as increase in fluorescence at 12.5 uM preincubated with DQ-BSA for 1 hr followed by compound addition and measured after 4 hrs by Hoechst 33342 staining based automated fluorescence microscopy analysis. The data set is classed as functional, cell-based.
Data set [2] deals with A549. The data set can be described thus: Inhibition of autophagy in human A549 cells assessed as increase in fluorescence at 100 nM preincubated with DQ-BSA for 1 hr followed by compound addition and measured after 4 hrs by Hoechst 33342 staining based automated fluorescence microscopy analysis. In kind it is functional, cell-based.
The subject of data set [3] is A549. The data set can be described thus: Inhibition of autophagy in human A549 cells assessed as increase in fluorescence at 20 uM preincubated with DQ-BSA for 1 hr followed by compound addition and measured after 4 hrs by Hoechst 33342 staining based automated fluorescence microscopy analysis. The data set is classed as functional, cell-based.
Data set [4] relates to HEK293T. The data set can be described thus: Inhibition of C-terminal Nano-luc tagged ATG14L/C-terminal Halo-tagged Beclin 1 (unknown origin) PPI tranfected with HEK293T cells using […] at 100 uM incubated for 24 hrs by […] assay relative to control. The data set is classed as cell-based. Conditions: Homo sapiens, values are per cent of control.
Data set [5] addresses Beclin 1-associated autophagy-related key regulator (Homo sapiens) (UniProt Q6ZNE5). Briefly: Induction of stabilization of ATG14L in human A549 cells assessed as increase in melting temperature at 100 uM incubated for 24 hrs by CETSA method. The data set is classed as cell-based.
The subject of data set [6] is HeLa. Briefly: Inhibition of autophagy in human HeLa cells expressing eGFP-LC3 assessed as increase in LC3-II at 100 uM preincubated for 20 hrs followed by chloroquine addition and measured after 4 hrs by Hoechst 33342 staining based automated fluorescence microscopy analysis. In kind it is functional, cell-based. Conditions: time 24.0 hrs.
The nature of data set [7]: Kinetic aqueous solubility of compound in PBS at pH 7.4 by absorbance based analysis. The data set is classed as physicochemical. Conditions: read-out: Kinetic_solubility.
Data set [8] can be described thus: Inhibition of C-terminal Nano-luc tagged ATG14L/C-terminal Halo-tagged Beclin 1 (unknown origin) PPI tranfected with HEK293T cells using […] incubated for 24 hrs by […] assay. In kind it is cell-based, Homo sapiens.
A short description of data set [9]: Inhibition of C-terminal Nano-luc tagged UVRAG/C-terminal Halo-tagged Beclin 1 (unknown origin) PPI tranfected with HEK293T cells using […] incubated for 24 hrs by […] assay. The data set is classed as cell-based, Homo sapiens.
Data set [10] is described as follows: Selectivity ratio of inhibition of C-terminal Nano-luc tagged UVRAG/C-terminal Halo-tagged Beclin 1 (unknown origin) PPI tranfected with HEK293T cells to inhibition of C-terminal Nano-luc tagged ATG14L/C-terminal Halo-tagged Beclin 1 (unknown origin) PPI tranfected with HEK293T cells.
Data set [11] relates to HeLa. The data set can be described thus: Cytotoxicity against human HeLa cells expressing eGFP-LC3 at 100 uM. The data set is classed as functional, cell-based.
Data set [12] concerns A549. The data set can be described thus: Inhibition of autophagy in human A549 cells assessed as increase in fluorescence at 100 uM preincubated with DQ-BSA for 1 hr followed by compound addition and measured after 4 hrs by Hoechst 33342 staining based automated fluorescence microscopy analysis. The data set is classed as functional, cell-based.
Data set [13] has as its system HEK293T. Briefly: Inhibition of C-terminal Nano-luc tagged UVRAG/C-terminal Halo-tagged Beclin 1 (unknown origin) PPI tranfected with HEK293T cells using […] at 100 uM incubated for 24 hrs by […] assay relative to control. In kind it is cell-based. The following applies: Homo sapiens, values are per cent of control.
Data set [14] concerns A549. The data set can be described thus: Inhibition of autophagy in human A549 cells assessed as increase in fluorescence at 100 uM measured after 4 hrs by Hoechst 33342 staining based […] microscopy analysis. The data set is classed as functional, cell-based.
Data set [15] has as its system HeLa. Briefly: Inhibition of autophagy in human HeLa cells expressing eGFP-LC3 assessed as decrease in GFP puncta/cell at 100 uM preincubated for 20 hrs followed by chloroquine addition and measured after 4 hrs by Hoechst 33342 staining based automated fluorescence microscopy analysis. The data set is classed as functional. The following applies: time 24.0 hrs.

Each structure is given as a SMILES string. Active and inactive are the calls of the source. The calls are words filed in the database; no cut-off is given here. Where only a bound is given, the exact number is not on record here.

Sequence of Beclin 1-associated autophagy-related key regulator (Homo sapiens) (Q6ZNE5 whole entry): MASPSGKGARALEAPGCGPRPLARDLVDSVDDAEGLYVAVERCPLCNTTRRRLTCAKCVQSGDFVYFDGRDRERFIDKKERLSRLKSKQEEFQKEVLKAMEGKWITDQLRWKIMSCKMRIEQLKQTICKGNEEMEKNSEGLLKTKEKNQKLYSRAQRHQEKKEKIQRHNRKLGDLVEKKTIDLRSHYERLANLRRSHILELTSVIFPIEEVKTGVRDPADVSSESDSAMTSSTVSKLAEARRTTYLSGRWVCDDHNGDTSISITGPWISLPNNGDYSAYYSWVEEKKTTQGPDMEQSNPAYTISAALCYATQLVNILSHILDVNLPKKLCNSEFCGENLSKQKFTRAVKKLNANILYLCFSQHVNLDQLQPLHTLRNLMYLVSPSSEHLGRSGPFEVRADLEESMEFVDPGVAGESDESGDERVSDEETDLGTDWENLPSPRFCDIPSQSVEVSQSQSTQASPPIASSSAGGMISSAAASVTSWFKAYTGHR

As for `Nc1ncc(-c2ccnc(Nc3ccncc3)n2)c(CC2CC2)n1`, in the data set on A549 [1], the inhibition result is “inactive”.
On to `CO/C1=C\C(C)=C\[C@@H](C)[C@@H](O)[C@@H](C)C/C(C)=C/C=C/[C@H](OC)[C@@H]([C@@H](C)[C@@H](O)[C@H](C)[C@@]2(O)C[C@@H](O)[C@H](C)[C@@H](C(C)C)O2)OC1=O`, for which the inhibition result with A549 [2] is “inactive”.
For the compound `CCN(CC)CCCC(C)Nc1ccnc2cc(Cl)ccc12` (centres undefined), the inhibition entry in the data set on A549 [3] is “inactive”.
`C[C@@H]1COCCN1c1cc(=O)n2c(n1)N(Cc1cncc(Cl)c1)[C@H](C(F)(F)F)CC2`: the inhibition result in the data set on A549 [1] is “inactive”.
Turning to `CCN1C(=O)COc2ccc(S(=O)(=O)Nc3cccc(C)c3C)cc21`, the residual binding, % of control in the data set on HEK293T [4] was found to be 95.9%. In addition, the outcome in data set [5] was inactive. For the same compound, the inhibition result in the data set with HeLa [6] is “Active”. The solubility kinetic in data set [7] is greater than 100 µM.
In general, IC50 refers to the concentration that gives 50% inhibition. As for `CCCN1C(=O)COc2ccc(-c3cccc(C)c3C)cc21`, the 50% inhibitory concentration (IC50) in data set [8] is 32.3 µM; in data set [9] it was 42.2 µM. Also, the residual binding, % of control with HEK293T [4] stood at 63%; in the data set on HEK293T [13], 77.7%. In addition, the solubility kinetic in data set [7] was greater than 100 µM. In addition, the Selectivity ratio in [10] worked out at 1.23. In addition, in the data set on HeLa [11], the result was Active. Also, the inhibition result with A549 [12] was “Active”.
Compound `CCCN1C(=O)COc2ccc(S(=O)(=O)Nc3cccc(C)c3C)cc21` gave an IC50 in data set [8] of 56.3 µM. The same compound yielded a residual binding, % of control with HEK293T [4] of 72.3%. For the same compound, in [5], the outcome was Active. Moreover, the inhibition result in the data set on A549 [14] and with HeLa [6] was “Active” each time. The inhibition entry is given as “Active; Compared With Chloroquine And Compound 1E” with HeLa [15] and “Active; Compound Showed Normal Functioning Of Lysosomes And Endosomal Trafficking” in the data set with A549 [12]. Also, the solubility kinetic in data set [7] is greater than 100 µM.
